PubChem BioAssay AID330 (DTP/NCI, 2004)
Toxic doses and inconclusive results are not listed. The calls were made as follows: active = survival T/C of 150% or more; inactive = T/C below 125% in these data. Square brackets hold non-standard residues; d marks the D form. Peptide text beside a SMILES is read from it. * marks the point of attachment. ξ: configuration not given here. Cbz = O=C(OCc1ccccc1)*; ξP = O=C(O)C1CCCN1

Test system: P388 leukemia ip, CD2F1 mice, survival T/C
Experiment: NCI In Vivo Anticancer Drug Screen. Data for tumor model P388 Leukemia (intraperitoneal) in CD2F1 (CDF1) mice
Settings: endpoint: median survival time, higher = longer survival
Procedure, shortened: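 Mice carrying the transplanted tumor received test compound or vehicle. Survival was recorded in each group, and the value is the treated-group measurement divided by that of the vehicle-treated control group.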

[1] = dose: 50.0 mg/kg/injection, schedule: Q01DX009 (ip), vehicle: saline with Tween-80
[2] = dose: 100.0 mg/kg/injection, schedule: Q01DX009 (ip), vehicle: saline with Tween-80
[3] = dose: 100.0 mg/kg/injection, schedule: Q04DX002 (ip), vehicle: Klucel (hydroxypropylcellulose) (HPC)
[4] = dose: 200.0 mg/kg/injection, schedule: Q04DX002 (ip), vehicle: Klucel (hydroxypropylcellulose) (HPC)
[5] = dose: 400.0 mg/kg/injection, schedule: Q04DX002 (ip), vehicle: Klucel (hydroxypropylcellulose) (HPC)
[6] = dose: 50.0 mg/kg/injection, schedule: Q01DX005 (ip), vehicle: saline with Tween-80

Measured: T/C

COc1cc(OC)c(C2SCC(=O)N2c2nnc(C(F)(F)F)s2)c(OC)c1 (centres undefined)
inactive: dose: 50.0 mg/kg/injection, schedule: Q01DX005 (ip), vehicle: saline + Tween-80 + alcohol 109 % of control | dose: 100.0 mg/kg/injection, schedule: Q01DX005 (ip), vehicle: saline + Tween-80 + alcohol 102 % of control | dose: 200.0 mg/kg/injection, schedule: Q01DX005 (ip), vehicle: saline + Tween-80 + alcohol 92 % of control

C/C(=C\Cl)COC1CCCCO1 (centres undefined)
inactive: [1] 122 % of control | [2] 122 % of control

O=[N+]([O-])c1cccc2c(S(=O)(=O)O)cccc12
inactive: dose: 50.0 mg/kg/injection, schedule: Q04DX003 (ip), vehicle: saline 90 % of control | dose: 100.0 mg/kg/injection, schedule: Q04DX003 (ip), vehicle: saline 100 % of control | dose: 200.0 mg/kg/injection, schedule: Q04DX003 (ip), vehicle: saline 90 % of control

Cc1nc2ccccc2c2c1C(=O)c1ccccc1-2
inactive: [3] 96 % of control | [4] 89 % of control | [5] 89 % of control

Cc1ccc(NCCN2CCN(CCNc3ccc(C)c4sc5ccccc5c(=O)c34)CC2)c2c(=O)c3ccccc3sc12
inactive: dose: 6.25 mg/kg/injection, schedule: Q01DX005 (ip), vehicle: saline with Tween-80 106 % of control | dose: 12.5 mg/kg/injection, schedule: Q01DX005 (ip), vehicle: saline with Tween-80 98 % of control | dose: 25.0 mg/kg/injection, schedule: Q01DX005 (ip), vehicle: saline with Tween-80 105 % of control | [6] 97 % of control

NNC(=O)C(N)=O
inactive: dose: 12.5 mg/kg/injection, schedule: Q01DX009 (ip), vehicle: saline with Tween-80 100 % of control | dose: 25.0 mg/kg/injection, schedule: Q01DX009 (ip), vehicle: saline with Tween-80 104 % of control | [1] 100 % of control | [2] 97 % of control

CC(C)(Oc1ccc(Cl)cc1)C(=O)NC(CS(C)(=O)=O)C(=O)O (centres undefined)
inactive: dose: 50.0 mg/kg/injection, schedule: Q01DX005 (ip), vehicle: saline 99 % of control | dose: 100.0 mg/kg/injection, schedule: Q01DX005 (ip), vehicle: saline 99 % of control | dose: 200.0 mg/kg/injection, schedule: Q01DX005 (ip), vehicle: saline 100 % of control

O=C1c2ccccc2C(=O)c2c(O)c(NCCO)cc(O)c21
inactive: [3] 92 % of control | [4] 101 % of control | [5] 93 % of control

O=C(O)CNC(=O)C1CCCN1C(=O)OCc1ccccc1 (centres undefined) (Cbz-[ξP]-Gly-OH)
inactive: [6] 100 % of control | dose: 100.0 mg/kg/injection, schedule: Q01DX005 (ip), vehicle: saline with Tween-80 91 % of control | dose: 200.0 mg/kg/injection, schedule: Q01DX005 (ip), vehicle: saline with Tween-80 91 % of control

Cc1cccc(-c2nc(=S)nc(N)s2)c1
inactive: dose: 100.0 mg/kg/injection, schedule: Q01DX001 (ip), vehicle: saline with Tween-80 95 % of control | dose: 200.0 mg/kg/injection, schedule: Q01DX001 (ip), vehicle: saline with Tween-80 93 % of control

Cc1cc(NCCCCCCNc2cc(C)[n+](C)c3ccccc23)c2ccccc2[n+]1C
inactive: dose: 3.12 mg/kg/injection, schedule: Q01DX005 (ip), vehicle: suspension in saline 101 % of control | dose: 6.25 mg/kg/injection, schedule: Q01DX005 (ip), vehicle: suspension in saline 106 % of control | dose: 12.5 mg/kg/injection, schedule: Q01DX005 (ip), vehicle: suspension in saline 115 % of control

CCN(CC)C1=C/CC/C(c2ccccc2)=N/N=C\1c1ccccc1
inactive: dose: 60.0 mg/kg/injection, schedule: Q01DX005 (ip), vehicle: Klucel (hydroxypropylcellulose) (HPC) 89 % of control | dose: 120.0 mg/kg/injection, schedule: Q01DX005 (ip), vehicle: Klucel (hydroxypropylcellulose) (HPC) 95 % of control | dose: 240.0 mg/kg/injection, schedule: Q01DX005 (ip), vehicle: Klucel (hydroxypropylcellulose) (HPC) 97 % of control

S=C(SSC(=S)C1CCCC1=NC1CCCCC1)C1CCCC1=NC1CCCCC1 (centres undefined)
inactive: dose: 50.0 mg/kg/injection, schedule: Q01DX009 (ip), vehicle: Klucel (hydroxypropylcellulose) (HPC) 101 % of control | dose: 100.0 mg/kg/injection, schedule: Q01DX009 (ip), vehicle: Klucel (hydroxypropylcellulose) (HPC) 108 % of control | dose: 200.0 mg/kg/injection, schedule: Q01DX009 (ip), vehicle: Klucel (hydroxypropylcellulose) (HPC) 108 % of control

CCOc1cc2cc(CCC(=O)O)c(C)cc2cn1
inactive: dose: 12.5 mg/kg/injection, schedule: Q01DX009 (ip), vehicle: distilled water + Tween-80 101 % of control | dose: 25.0 mg/kg/injection, schedule: Q01DX009 (ip), vehicle: distilled water + Tween-80 103 % of control | dose: 50.0 mg/kg/injection, schedule: Q01DX009 (ip), vehicle: distilled water + Tween-80 97 % of control | dose: 100.0 mg/kg/injection, schedule: Q01DX009 (ip), vehicle: distilled water + Tween-80 98 % of control | dose: 200.0 mg/kg/injection, schedule: Q01DX009 (ip), vehicle: distilled water + Tween-80 107 % of control
